This assay concerns MCH receptors. The experiment in a line: MCH receptor activity class (method not given).
Where [1] appears, read: activity class 1-3: percent of control at 10^-7 M or IC50.
The mark [2] stands for this setting: class by percent of control at 10^−7 M or IC50.
Where [3] appears, read: MCH receptor activity class 1-3 (percent of control at 10^-7 M or IC50).
Where [4] appears, read: class by percent of control at 10^-7 M or IC50.
The mark [5] stands for this setting: MCH receptor, class by percent of control at 10^-7 M or IC50.
Setting [6] is: activity class per percent of control at 10^-7 M or IC50.
[7] abbreviates: class 1-3 by percent of control at 10^-7 M or IC50.

Structures are written as SMILES.

With `CN(C)c1nc(N[C@H]2CC[C@@H](NC(=O)NC(c3ccccc3)c3ccccc3)CC2)nc2c1CCCC2` [compound 1689], the class under setting [1] is given as 1 (Class 1: The value of percent of control at 10^−7 M was less than 40% or the value of IC50 was less than 50 nM.).
As for `Cc1ccc(C(=O)N[C@H]2CC[C@@H](CNc3nc(C)cc(N(C)C)n3)CC2)cc1` [compound 2733], under setting [2], the class is given as 3 (Class 3 The value of percent of control at 10^−7 M was more than 60% or the value of IC50 was more than 200 nM.).
As for `CC(C)c1ccccc1NC(=O)NC[C@H]1CC[C@@H](Nc2nc3c(c(N(C)C)n2)CCCC3)CC1` [compound 2472], the class under setting [3] is given as 3 (Class 3 The value of percent of control at 10^−7 M was more than 60% or the value of IC50 was more than 200 nM.).
`Cc1cc(N(C)C)nc(N[C@H]2CC[C@@H](C(=O)NCc3cccc(I)c3)CC2)n1` [compound 2806, cis-4-{[4-(dimethylamino)-6-methylpyrimidin-2-yl]amino}-N-(3-iodobenzyl)cyclohexanecarboxamide]: the class under setting [2] was 1 (Class 1: The value of percent of control at 10^−7 M was less than 40% or the value of IC50 was less than 50 nM.).
Turning to `CCCCCCCCOC(=O)N[C@H]1CC[C@@H](Nc2cc(N(C)C)c3ccccc3n2)CC1` [compound 1546], the class under setting [1] is on record as 3 (Class 3 The value of percent of control at 10^−7 M was more than 60% or the value of IC50 was more than 200 nM.).
Turning to `Cc1cnc(N[C@H]2CC[C@@H](NCc3cc(Cl)cc(Cl)c3)CC2)nc1N(C)C` [compound 3001], the class under setting [2] is recorded as 3 (Class 3 The value of percent of control at 10^−7 M was more than 60% or the value of IC50 was more than 200 nM.).
On to `CN(C)c1cc(N[C@H]2CC[C@@H](CNC(=O)c3cc(F)ccc3Cl)CC2)nc2ccccc12` [compound 225], for which, under setting [4], the class was 3 (Class 3 The value of percent of control at 10^−7 M was more than 60% or the value of IC50 was more than 200 nM.).
For `CN(C)c1ccnc(N[C@H]2CC[C@@H](CNC(=O)Oc3ccc(Br)cc3)CC2)n1` [compound 1643], under setting [1], the class was 3 (Class 3 The value of percent of control at 10^−7 M was more than 60% or the value of IC50 was more than 200 nM.).
As for `CN(C)c1cc(N[C@H]2CC[C@@H](CNCc3cn(C)c4ccccc34)CC2)nc2ccccc12` [compound 1179], the class under setting [4] is recorded as 3 (Class 3 The value of percent of control at 10^−7 M was more than 60% or the value of IC50 was more than 200 nM.).
Turning to `Cc1cnc(N[C@H]2CC[C@@H](CNC(=O)c3cccc(C(F)(F)F)c3)CC2)nc1N(C)C` [compound 2697, N-[(cis-4-{[4-(dimethylamino)-5-methylpyrimidin-2-yl]amino}cyclohexyl)methyl]-3-(trifluoromethyl)benzamide], the class under setting [2] is 1 (Class 1: The value of percent of control at 10^−7 M was less than 40% or the value of IC50 was less than 50 nM.).
On to `Cc1ccc(C(=O)N[C@H]2CC[C@@H](Nc3cc(N(C)C)c4ccccc4n3)CC2)cc1F` [compound 74, N-(cis-4-{[4-(dimethylamino)quinolin-2-yl]amino}cyclohexyl)-3-fluoro-4-methylbenzamide], for which the class under setting [5] is reported as 2 (Class 2: The value of percent of control at 10^−7 M was from 40% to 60% or the value of IC′50 was from 50 nM to 200 nM.).
For `Cc1noc(-c2ccccc2)c1NC(=O)NC[C@H]1CC[C@@H](Nc2cc(N(C)C)c3ccccc3n2)CC1` [compound 2391], the class under setting [3] is reported as 3 (Class 3 The value of percent of control at 10^−7 M was more than 60% or the value of IC50 was more than 200 nM.).
With `CN(C)c1cc(N[C@H]2CC[C@@H](CNCCCOc3ccccc3)CC2)nc2ccccc12` [compound 1471], the class under setting [4] is reported as 3 (Class 3 The value of percent of control at 10^−7 M was more than 60% or the value of IC50 was more than 200 nM.).
Regarding `CN(C)c1nc(N[C@H]2CC[C@@H](NC(=O)CCC(=O)c3cccs3)CC2)nc2c1CCCC2` [compound 1021], the class under setting [6] is 3 (Class 3 The value of percent of control at 10^−7 M was more than 60% or the value of IC50 was more than 200 nM.).
Consider `CN(C)c1nc(N[C@H]2CC[C@@H](NC(=O)CCCc3ccc([N+](=O)[O-])cc3)CC2)nc2c1CCCC2` [compound 1001], for which the class under setting [6] was 1 (Class 1: The value of percent of control at 10^−7 M was less than 40% or the value of IC50 was less than 50 nM.).
Consider `Cc1ccc(C(=O)NC[C@H]2CC[C@@H](Nc3nccc(N(C)C)n3)CC2)cc1F` [compound 419], for which the class under setting [7] is on record as 3 (Class 3 The value of percent of control at 10^−7 M was more than 60% or the value of IC50 was more than 200 nM.).
For `CN(C)c1ccnc(N[C@H]2CC[C@@H](NC(=O)Nc3ccccc3Br)CC2)n1` [compound 2213], under setting [4], the class is reported as 3 (Class 3 The value of percent of control at 10^−7 M was more than 60% or the value of IC50 was more than 200 nM.).
Take `CN(C)c1ccnc(N[C@H]2CC[C@@H](CNCCc3ccc(C(C)(C)C)cc3)CC2)n1` [compound 1529]: under setting [1], the class is reported as 3 (Class 3 The value of percent of control at 10^−7 M was more than 60% or the value of IC50 was more than 200 nM.).
For the molecule `COc1cc2ccccc2cc1CN[C@H]1CC[C@@H](Nc2nc3c(c(N(C)C)n2)CCCC3)CC1` [compound 1488], the class under setting [4] was 3 (Class 3 The value of percent of control at 10^−7 M was more than 60% or the value of IC50 was more than 200 nM.).
For the molecule `CCOC(=O)c1ccc(NC(=S)N[C@H]2CC[C@@H](Nc3nc4c(c(N(C)C)n3)CCCC4)CC2)cc1` [compound 2013], under setting [5], the class is listed as 3 (Class 3 The value of percent of control at 10^−7 M was more than 60% or the value of IC50 was more than 200 nM.).
With `CN(C)c1cc(N[C@H]2CC[C@@H](NCc3c[nH]c4ccccc34)CC2)nc2ccccc12` [compound 1087], the class under setting [6] was 3 (Class 3 The value of percent of control at 10^−7 M was more than 60% or the value of IC50 was more than 200 nM.).
In the case of `CCOc1ccc(OCC)c(CNC[C@H]2CC[C@@H](Nc3nc4c(c(N(C)C)n3)CCCC4)CC2)c1` [compound 1411], the class under setting [4] is on record as 1 (Class 1: The value of percent of control at 10^−7 M was less than 40% or the value of IC50 was less than 50 nM.).
Regarding `CN(C)c1cc(N[C@H]2CC[C@@H](NC(=S)Nc3ccc4c(c3)OCO4)CC2)nc2ccccc12` [compound 2305], under setting [3], the class was 3 (Class 3 The value of percent of control at 10^−7 M was more than 60% or the value of IC50 was more than 200 nM.).
The same measure, in the same setting: under `Cc1cccc(C)c1NC(=O)NC[C@H]1CC[C@@H](Nc2nccc(N(C)C)n2)CC1` [compound 2406, N-[(cis-4-{[4-(dimethylamino)pyrimidin-2-yl]amino}cyclohexyl)methyl]-N′-(2,6-dimethylphenyl)urea] stands 1 (Class 1: The value of percent of control at 10^−7 M was less than 40% or the value of IC50 was less than 50 nM.).
Take `CN(C)c1cc(N[C@H]2CC[C@@H](CNC(=O)c3cccc(F)c3F)CC2)nc2ccccc12` [compound 228]: the class under setting [4] is 3 (Class 3 The value of percent of control at 10^−7 M was more than 60% or the value of IC50 was more than 200 nM.).
In the case of `CN(C)c1nc(N[C@H]2CC[C@@H](NC(=O)c3ccc(Cl)cc3)CC2)nc2c1CCCC2` [compound 461], the class under setting [7] is reported as 1 (Class 1: The value of percent of control at 10^−7 M was less than 40% or the value of IC50 was less than 50 nM.).
On to `Cc1cc(N(C)C)nc(N[C@H]2CC[C@@H](NC(=O)c3ccc(Br)cc3)CC2)n1` [compound 2973, 4-bromo-N-(cis-4-{[4-(dimethylamino)-6-methylpyrimidin-2-yl]amino}cyclohexyl)benzamide], for which the class under setting [2] is reported as 1 (Class 1: The value of percent of control at 10^−7 M was less than 40% or the value of IC50 was less than 50 nM.).

These data come from patent US20050197350A1, “Novel quinoline, tetrahydroquinazoline, and pyrimidine derivatives and methods of treatment related to the use thereof” (TAISHO PHARMACEUTICAL CO., LTD., priority 2003, published 2005).
